# Literature values in paper PMC11477967, “Review of the Structural Characteristics and Biological Activities of Tricholoma Secondary Metabolites (2018–2023)” (Molecules, 2024).
# Assays:
# [1] = system: HL-60
# [2] = system: human tumor cell lines; design: method as in PMID 29758519, PMID 32534274, PMID 26186257; conditions: Table 1 summary
# [3] = system: nitric oxide (NO) production in lipopolysaccharide (LPS)-induced RAW264.7 macrophages; conditions: for Bioactivities: Anti-inflammatory activity: Table 1 summary; for IC50: LPS-induced RAW264.7 macrophages
# [4] = system: WISH; design: method as in doi:10.1177/1934578X1801300901
# [5] = system: A549; design: method as in doi:10.1177/1934578X1801300901; conditions: said to surpass shikonin
# [6] = system: Hep G2; design: method as in doi:10.1177/1934578X1801300901; conditions: said to surpass shikonin
# [7] = system: human cancer cell lines; conditions: for Bioactivities: Cytotoxic against human cancer cell lines: Table 1 summary
# [8] = system: Caki-1; design: method as in doi:10.1177/1934578X1801300901
# [9] = system: MCF-7; design: method as in doi:10.1177/1934578X1801300901
# [10] = system: bacteria; design: method as in PMID 32534274, PMID 26186257, PMID 34604687, PMID 28794307; conditions: Table 1 summary
# [11] = system: A-549; design: method as in PMID 37175274
# [12] = system: Caki-1; design: method as in PMID 37175274
# [13] = system: Hep G2; design: method as in PMID 37175274
# [14] = system: MCF-7; design: method as in PMID 37175274
# [15] = system: SMMC-7721; design: method as in PMID 29758519, PMID 32534274
# [16] = system: MCF-7
# [17] = system: SW480; design: method as in PMID 29758519, PMID 32534274
# [18] = system: A-549
structure (smiles),measurement,setting,value
"CC(C)[C@@H](C)/C=C/[C@@H](C)[C@H]1CC[C@H]2C3=C(CC[C@]12C)[C@@]1(C)CC[C@H](O)CC1=CC3=O [Compound 30, 3β-hydroxyl-(22E,24R)-ergosta-5,8,22-trien-7-one]",IC50,[1],< 10 µM
same,Bioactivities: Anti-cancer activity,[2],Anti-cancer activity
"COC(=O)C(NC(=O)CC(C)(O)CC(=O)OC1C(O)CC2(C)C3=C(CCC2C1(C)C)C1(C)CCC(C2CCC(C(C)(C)O)OC2O)C1(C)C(O)C3)C(O)c1ccccc1 (stereo not drawn) [Compound 7, pardinol G]",Bioactivities: Anti-cancer activity,[2],Anti-cancer activity
same,Bioactivities: Anti-inflammatory activity,[3],Anti-inflammatory activity
"C=C(CCC(C)C1CCC2(C)C3=C(CC(O)C12C)C1(C)CCC(OC(=O)CC(=O)OC)C(C)(C)C1CC3)C(C)C(=O)O [Compound 16, (25S)-(+)-12α-hydroxy-3α-methylcarboxyacetate-24-methyllanosta-8,24(31)-diene-26-oic acid]",Bioactivities: Anti-cancer activity,[2],Anti-cancer activity
"C=C1CCC(CC=C2CCC3(OC2)OC2(O)CCC3(C)OC2(C)C)C(C)(C)C1C(O)C=C1CCOC1=O (stereo not drawn) [Compound 55, saponaceolide T]",antiproliferative effects,[4],strong antiproliferative effects
same,antiproliferative effects,[5],strong antiproliferative effects
same,antiproliferative effects,[6],strong antiproliferative effects
same,Bioactivities: Cytotoxic against human cancer cell lines,[7],Cytotoxic against human cancer cell lines
same,antiproliferative effects,[8],strong antiproliferative effects
same,antiproliferative effects,[9],strong antiproliferative effects
"CC(C=CC(C)(O)C1CC(O)C2C3=CC(=O)OC3=CCC21C)C(C)(C)O (stereo not drawn) [Compound 49, tricholosterol D]",IC50,[3],31.8 µM
same,Bioactivities: Anti-inflammatory activity,[3],Anti-inflammatory activity
"COC(=O)C(NC(=O)CC(C)(O)CC(=O)OC1C(O)CC2(C)C3=C(CCC2C1(C)C)C1(C)CCC(C(C)CCC(O)C(C)(C)O)C1(C)C(O)C3)C(OC(C)=O)c1ccccc1 (stereo not drawn) [Compound 6, pardinol F]",Bioactivities: Anti-cancer activity,[2],Anti-cancer activity
same,Bioactivities: Anti-inflammatory activity,[3],Anti-inflammatory activity
"CCC(=O)C1=C(C(COC(C)=O)NC(=O)CCC(N)C(=O)O)C(OC(=O)CC(C)C)CC1OC (stereo not drawn) [Compound 87, pardinumone D]",Bioactivities: Antibacterial activity,[10],Antibacterial activity
"CCC1(O)OCC(N2C(=O)CCC2OC)C2=C1C(OC)CC2OC(=O)CC(C)C (stereo not drawn) [Compound 84, pardinumone A]",Bioactivities: Antibacterial activity,[10],Antibacterial activity
"C=C1CCC(CCC2CCC3(OC2)OC2(O)CCC3(C)OC2(C)C)C(C)(C)C1C(O)C=C1CCOC1=O (stereo not drawn) [Compound 61, saponaceolide H]",antiproliferative effects,[4],strong antiproliferative effects
same,antiproliferative effects,[5],strong antiproliferative effects
same,antiproliferative effects,[6],strong antiproliferative effects
same,Bioactivities: Cytotoxic against human cancer cell lines,[7],Cytotoxic against human cancer cell lines
same,cytotoxicity rank,"[7]; among 55, 56, 58, 60, 61, cell line not specified",most significant cytotoxicity
same,antiproliferative effects,[8],strong antiproliferative effects
same,antiproliferative effects,[9],strong antiproliferative effects
"CC(C)[C@@H](C)/C=C/[C@@H](C)[C@H]1CC(=O)[C@H]2C3=C(CC[C@@]21C)[C@@]1(C)CC[C@H](O)CC1=CC3=O [Compound 29, 3β-hydroxyl-(22E,24R)-ergosta-5,8,22-trien-7,15-dione]",IC50,[1],< 10 µM
same,Bioactivities: Anti-cancer activity,[2],Anti-cancer activity
"C=C1CCC(CC=C2CCC3(OC2)OC2(O)CCC3(C)OC2(C)C)C(C)(C)C1CC=C1CCOC1=O (stereo not drawn) [Compound 62, saponaceolide J]",inhibitory effects,[11],notable inhibitory effects
same,Bioactivities: Cytotoxic against human cancer cell lines,[7],Cytotoxic against human cancer cell lines
same,inhibitory effects,[12],notable inhibitory effects
same,inhibitory effects,[13],notable inhibitory effects
same,inhibitory effects,[14],notable inhibitory effects
"CC(C)[C@@H](C)/C=C/[C@@H](C)[C@H]1CC(=O)C2=C3C(=O)C=C4C[C@@H](O)CC[C@]4(C)[C@H]3CC[C@@]21C [Compound 34, 3β-hydroxyl-(22E,24R)-ergosta-5,8(14),22-trien-7,15-dione]",Bioactivities: Anti-cancer activity,[2],Anti-cancer activity
"CC(C)C(C)C=CC(C)C1CCC2C3(O)C=CC4=CC(=O)CCC4(C)C3CCC12C (stereo not drawn) [Compound 26, isocyathisterol]",IC50,[15],< 40 µM
same,IC50,[1],< 40 µM
same,Bioactivities: Anti-cancer activity,[2],Anti-cancer activity
same,IC50,[16],< 40 µM
same,IC50,[17],< 40 µM
same,IC50,[18],< 40 µM
"CCC1(O)OCC(N2C(=O)CCC2OC)C2=C1C(OC)CC2OC(=O)CC(C)C (stereo not drawn) [Compound 85, pardinumone B]",Bioactivities: Antibacterial activity,[10],Antibacterial activity
"C=C1CCC(CCC2CCC3(OC2)OC2(O)CCC3(C)OC2(C)C)C(C)(C)C1C(O)C=C1C(=O)OCC1O (stereo not drawn) [Compound 58, saponaceolide C]",antiproliferative effects,[4],strong antiproliferative effects
same,antiproliferative effects,[5],strong antiproliferative effects
same,antiproliferative effects,[6],strong antiproliferative effects
same,Bioactivities: Cytotoxic against human cancer cell lines,[7],Cytotoxic against human cancer cell lines
same,antiproliferative effects,[8],strong antiproliferative effects
same,antiproliferative effects,[9],strong antiproliferative effects
"C=C1CC[C@@H](CCO)C(C)(C)[C@H]1C/C=C1/C(=O)OC[C@@H]1O [Compound 70, tricholopardin B]",IC50,[3],16.2 µM
same,Bioactivities: Anti-inflammatory activity,[3],Anti-inflammatory activity
"CC(C)[C@@H](C)/C=C/[C@@H](C)[C@H]1CC[C@H]2C3=C(CC[C@]12C)[C@@]1(C)CC[C@H](O)C[C@@]12O[C@H]2[C@@H]3O [Compound 35, 5α,6α-epoxy-(22E,24R)-ergosta-8,22-diene-3β,7β-diol]",Bioactivities: Anti-cancer activity,[2],Anti-cancer activity
"COC(=O)C(Cc1ccccc1)NC(=O)CC(C)(O)CC(=O)OC1C(O)CC2(C)C3=C(CCC2C1(C)C)C1(C)CCC(C(C)CCC(O)C(C)(C)O)C1(C)C(O)C3 (stereo not drawn) [Compound 2, pardinol B]",IC50,[15],< 40 µM
same,IC50,[1],< 40 µM
same,Bioactivities: Anti-cancer activity,[2],Anti-cancer activity
same,IC50,[16],< 40 µM
same,IC50,[17],< 40 µM
same,IC50,[18],< 40 µM
same,Bioactivities: Anti-inflammatory activity,[3],Anti-inflammatory activity
"CC(C)[C@@H](C)/C=C/[C@@H](C)[C@@H](CC(=O)O)[C@@]1(C)CCC2=C(C1=O)[C@H](O)[C@@H]1O[C@@]13C[C@@H](O)CC[C@]23C [Compound 46, tricholosterol A]",IC50,[3],27.6 µM
same,Bioactivities: Anti-inflammatory activity,[3],Anti-inflammatory activity
"COC(=O)C(NC(=O)CC(C)(O)CC(=O)OC1C(O)CC2(C)C3=C(CCC2C1(C)C)C1(C)CCC(C2CCC(C(C)(C)O)OC2O)C1(C)C(O)C3)C(OC(C)=O)c1ccccc1 (stereo not drawn) [Compound 8, pardinol H]",Bioactivities: Anti-cancer activity,[2],Anti-cancer activity
same,Bioactivities: Anti-inflammatory activity,[3],Anti-inflammatory activity
"COC(=O)C(NC(=O)CC(C)(O)CC(=O)OC1CC2(C)C3=C(CCC2C(C)(C)C1O)C1(C)CCC(C(C)CCC(O)C(C)(C)O)C1(C)C(O)C3)C(OC(C)=O)c1ccccc1 (stereo not drawn) [Compound 5, pardinol E]",Bioactivities: Anti-cancer activity,[2],Anti-cancer activity
same,Bioactivities: Anti-inflammatory activity,[3],Anti-inflammatory activity
"COC12CCC3(C)C(CCC3C(C)C=CC(C)C(C)C)C1=CC(=O)O2 (stereo not drawn) [Compound 42, volemolide]",IC50,[15],< 40 µM
same,IC50,[1],< 40 µM
same,Bioactivities: Anti-cancer activity,[2],Anti-cancer activity
same,IC50,[16],< 40 µM
same,IC50,[17],< 40 µM
"C=C1CCC(CCC2CCC3(OC2)OC2(O)CCC3(C)OC2(C)C)C(C)(C)C1CC=C1CCOC1=O (stereo not drawn) [Compound 57, saponaceolide B]",inhibitory effects,[11],notable inhibitory effects
same,Bioactivities: Cytotoxic against human cancer cell lines,[7],Cytotoxic against human cancer cell lines
same,inhibitory effects,[12],notable inhibitory effects
same,inhibitory effects,[13],notable inhibitory effects
same,inhibitory effects,[14],notable inhibitory effects
"CC=C1OCC(NC(=O)CCC(N)C(=O)O)C2=C1C(OC)CC2OC(=O)CC(C)C (stereo not drawn) [Compound 86, pardinumone C]",Bioactivities: Antibacterial activity,[10],Antibacterial activity
"CC(C)C(C)C=CC(C)C1CCC2C3=CC(=O)OC3(O)CCC21C (stereo not drawn) [Compound 41, demethylincisterol A3]",IC50,[15],< 40 µM
same,IC50,[1],< 40 µM
same,Bioactivities: Anti-cancer activity,[2],Anti-cancer activity
same,IC50,[16],< 40 µM
same,IC50,[17],< 40 µM
same,IC50,[18],< 40 µM
"CC(C)[C@@H](C)/C=C/[C@@H](C)[C@H]1C[C@H](O)C2=C3C(=O)C=C4C[C@@H](O)CC[C@]4(C)[C@H]3CC[C@@]21C [Compound 32, 3β,15α-dihydroxyl-(22E,24R)-ergosta-5,8(14),22-trien-7-one]",IC50,[15],< 40 µM
same,IC50,[1],< 40 µM
same,Bioactivities: Anti-cancer activity,[2],Anti-cancer activity
same,IC50,[16],< 40 µM
same,IC50,[17],< 40 µM
same,IC50,[18],< 40 µM
